Reference: publication PMC5458078, “Global mapping of CARM1 substrates defines enzyme specificity and substrate recognition” (Nature Communications, 2017)

What was measured:
MCF7 cells = test: Quantitative nanoLC-MS/MS (TMT) of ADMA-containing peptides, CARM1 KO vs parental; format: cell-based, human; parameters: Fold change KO/WT: scale not given here
MCF7 CARM1 KO cells = test: Quantitative MS of ADMA-containing peptides in MCF7 CARM1 KO cells expressing CARM1 28-608 or CARM1 140-608, and in CARM1 KO; format: cell-based, human
[1] = MCF7 CARM1 knockout vs wild type, 3 biological replicates each, values are on log2 scale
[2] = mean, CARM1 140-608 versus WT (log2 scale)
[3] = mean, CARM1 KO versus WT (log2 scale)
[4] = MCF7, CARM1 KO (KO1-KO3) vs wild type (WT1-WT3)
[5] = CARM1 140-608 vs WT, mean of 3 replicates (log2 scale)
[6] = KO vs WT, mean of 3 replicates (log2 scale)
[7] = MCF7, CARM1 knockout vs wild type, n = 3 each
[8] = difference of log2 means, CARM1 140-608 vs WT
[9] = difference of log2 means, KO vs WT
[10] = ADMA-containing peptide, CARM1 knockout (KO) vs wild type (WT) MCF7 cells, 6-plex TMT experiment #1, three biological replicates each, sheet "MCF7"
[11] = CARM1 140-608 versus WT, mean of three replicates (log2)
[12] = KO versus WT, mean of three replicates (log2)
[13] = MCF7, CARM1 KO vs WT, three biological replicates each
[14] = ADMA-containing peptide, MCF7, CARM1 knockout (KO1-3) vs wild type (WT1-3), TMT 6-plex experiment #1
[15] = log2 scale ratio, mean of n = 3
[16] = ratio on log2 scale, mean of 3 replicates

## GFYPQYGALETrGGFNPR
MCF7 cells; [1]
  Fold change KO/WT: -0.3326
MCF7 CARM1 KO cells; [2]
  CARM1 140-608/WT: -0.6578
MCF7 CARM1 KO cells; [3]
  KO/WT: -0.432

## SLIPPIPVSPPILAPrLSSGALK
MCF7 cells; [4]
  Fold change KO/WT: -3.075
MCF7 CARM1 KO cells; [5]
  CARM1 140-608/WT: -0.7213
MCF7 CARM1 KO cells; [6]
  KO/WT: -2.509

## LFIGGLSFETTDDSLr
MCF7 cells; [7]
  Fold change KO/WT: -0.1032
MCF7 CARM1 KO cells; [2]
  CARM1 140-608/WT: -0.1871
MCF7 CARM1 KO cells; [3]
  KO/WT: 0.1666

## GLGPGGTPFPGQGPPQrPrFYPVSEDPHR
MCF7 cells; [1]
  Fold change KO/WT: -1.165
MCF7 CARM1 KO cells; [8]
  CARM1 140-608/WT: -1.244
MCF7 CARM1 KO cells; [9]
  KO/WT: -1.165

## DCGTLPNrFVITPR
MCF7 cells; [10]
  Fold change KO/WT: -0.2619
MCF7 CARM1 KO cells; [11]
  CARM1 140-608/WT: -0.5335
MCF7 CARM1 KO cells; [12]
  KO/WT: -0.73

## EELLrHQLLEK
MCF7 cells; [13]
  Fold change KO/WT: -4.489
MCF7 CARM1 KO cells; CARM1 140-608 vs WT, mean of 3 replicates, log2
  CARM1 140-608/WT: -4.245
MCF7 CARM1 KO cells; KO vs WT, mean of 3 replicates, log2
  KO/WT: -5.464

## GVVNTAVSAAVQAVrGrGrGTLTr
MCF7 cells; [14]
  Fold change KO/WT: -0.6248
MCF7 CARM1 KO cells; [15]
  CARM1 140-608/WT: -0.4677
  KO/WT: -0.6727

## GPVTPGGLPPrGLLGDAPNDPR
MCF7 cells; [7]
  Fold change KO/WT: -1.652
MCF7 CARM1 KO cells; [16]
  CARM1 140-608/WT: -1.495
  KO/WT: -1.652

## ASrGrGGLGPSWASANSGSGGSrGK
MCF7 cells; [1]
  Fold change KO/WT: 0.06985
MCF7 CARM1 KO cells; [2]
  CARM1 140-608/WT: 0.01356
MCF7 CARM1 KO cells; [3]
  KO/WT: 0.5944

## FArVPLALHPVVGQPFLK
MCF7 cells; [13]
  Fold change KO/WT: -2.764
MCF7 CARM1 KO cells; [16]
  CARM1 140-608/WT: -2.105
  KO/WT: -2.764

## VrPVLNLPGPGPALPR
MCF7 cells; [10]
  Fold change KO/WT: -2.268
MCF7 CARM1 KO cells; [11]
  CARM1 140-608/WT: -1.7334
MCF7 CARM1 KO cells; [12]
  KO/WT: -4.296

## VGSSNFrGGLGGGYGGASGMGGITAVTVNQSLLSPLVLEVDPNIQAVR
MCF7 cells; [1]
  Fold change KO/WT: -0.7814
MCF7 CARM1 KO cells; [8]
  CARM1 140-608/WT: -0.9286
MCF7 CARM1 KO cells; [9]
  KO/WT: -0.7814

## TSVYrQQQPAVPQGQrLrQQLQAK
MCF7 cells; [10]
  Fold change KO/WT: -4.048
MCF7 CARM1 KO cells; [8]
  CARM1 140-608/WT: -3.863
MCF7 CARM1 KO cells; [9]
  KO/WT: -4.228

## NDTKDDLGNLNVPDSSLPAENEATGPGFVPPPLAPIrGPLFPVDArGPFLR
MCF7 cells; [7]
  Fold change KO/WT: -2.279
MCF7 CARM1 KO cells; [16]
  CARM1 140-608/WT: 0.1654
  KO/WT: -2.602

## SGSGNFGGGrGGGFGGNDNFGrGGNFSGrGGFGGSR
MCF7 cells; [7]
  Fold change KO/WT: 0.2137
MCF7 CARM1 KO cells; [2]
  CARM1 140-608/WT: 0.1031
MCF7 CARM1 KO cells; [3]
  KO/WT: 0.7867

## YSAFQLAPFQDHGLPAVSVDSPVrYK
MCF7 cells; CARM1 KO vs wild type MCF7 cells, 3 biological replicates each
  Fold change KO/WT: -2.156
MCF7 CARM1 KO cells; CARM1 140-608 versus WT, difference of mean log2 values
  CARM1 140-608/WT: -1.433
MCF7 CARM1 KO cells; CARM1 KO versus WT, difference of mean log2 values
  KO/WT: -2.156

## SPVAPPLGPrYAVFPK
MCF7 cells; [1]
  Fold change KO/WT: -2.706
MCF7 CARM1 KO cells; [8]
  CARM1 140-608/WT: 2.312
MCF7 CARM1 KO cells; [9]
  KO/WT: -0.9897

## FrHNIAYFPQIVSVAAR
MCF7 cells; [1]
  Fold change KO/WT: -0.6457
MCF7 CARM1 KO cells; [2]
  CARM1 140-608/WT: -0.3364
MCF7 CARM1 KO cells; [3]
  KO/WT: -0.6457

## FDGQPGQPSLLPrFDGLHGQPGPrFER
MCF7 cells; [10]
  Fold change KO/WT: -2.047
MCF7 CARM1 KO cells; [11]
  CARM1 140-608/WT: -1.6986
MCF7 CARM1 KO cells; [12]
  KO/WT: -2.399

## ErDQLYYECYSDVSVHEEMIADR
MCF7 cells; [4]
  Fold change KO/WT: -0.1341
MCF7 CARM1 KO cells; [11]
  CARM1 140-608/WT: -0.3168
MCF7 CARM1 KO cells; [12]
  KO/WT: -0.6326

## VTrYPILGIPQAHR
MCF7 cells; [10]
  Fold change KO/WT: -1.789
MCF7 CARM1 KO cells; [8]
  CARM1 140-608/WT: -2.491
MCF7 CARM1 KO cells; [9]
  KO/WT: -2.966

## QPVPFGLVrFGVAPDHPEVK
MCF7 cells; [7]
  Fold change KO/WT: -1.677
MCF7 CARM1 KO cells; [2]
  CARM1 140-608/WT: -1.417
MCF7 CARM1 KO cells; [3]
  KO/WT: -1.677

## SGFAATSQPGPrLPFIQHSQNPrFYHK
MCF7 cells; [7]
  Fold change KO/WT: -3.247
MCF7 CARM1 KO cells; [2]
  CARM1 140-608/WT: -0.6332
MCF7 CARM1 KO cells; [3]
  KO/WT: -3.722

## VrPVLNLPGPGPALPrALER
MCF7 cells; [10]
  Fold change KO/WT: -2.391
MCF7 CARM1 KO cells; [8]
  CARM1 140-608/WT: -2.008
MCF7 CARM1 KO cells; [9]
  KO/WT: -2.391

## GMQHFPPGPGGPMPGPHGGPGGPVGPrLLGPPPPPR
MCF7 cells; [10]
  Fold change KO/WT: -1.283
MCF7 CARM1 KO cells; [11]
  CARM1 140-608/WT: -0.7184
MCF7 CARM1 KO cells; [12]
  KO/WT: -1.425

## DPFSQALSrCQLQQAAALNAQHK
MCF7 cells; [7]
  Fold change KO/WT: -2.1
MCF7 CARM1 KO cells; [16]
  CARM1 140-608/WT: -1.585
  KO/WT: -2.1

## QrLPFSAPPGSVVEASSNLR
MCF7 cells; [1]
  Fold change KO/WT: -1.459
MCF7 CARM1 KO cells; [8]
  CARM1 140-608/WT: -0.4663
MCF7 CARM1 KO cells; [9]
  KO/WT: -1.419

## LLGQRPGPYDRPIGGrGGYYGAGrGSMYDR
MCF7 cells; [1]
  Fold change KO/WT: 0.5689
MCF7 CARM1 KO cells; [2]
  CARM1 140-608/WT: -0.09536
MCF7 CARM1 KO cells; [3]
  KO/WT: 1.04

## GRPSSPrTPLYLQPDAYGSLDR
MCF7 cells; [4]
  Fold change KO/WT: -1.386
MCF7 CARM1 KO cells; [11]
  CARM1 140-608/WT: -1.266
MCF7 CARM1 KO cells; [12]
  KO/WT: -1.386

## IAQPVrSFLQPPKPLSSLSTLR
MCF7 cells; [4]
  Fold change KO/WT: -2.977
MCF7 CARM1 KO cells; [5]
  CARM1 140-608/WT: -1.679
MCF7 CARM1 KO cells; [6]
  KO/WT: -2.977

## GSRLPLALPPASQGCSSGGGGGGGGGSSAGGSGNSrPPR
MCF7 cells; [1]
  Fold change KO/WT: -0.9721
MCF7 CARM1 KO cells; [2]
  CARM1 140-608/WT: -0.7656
MCF7 CARM1 KO cells; [3]
  KO/WT: -0.9721

## GrGSLLLR
MCF7 cells; [10]
  Fold change KO/WT: 1.1394
MCF7 CARM1 KO cells; [11]
  CARM1 140-608/WT: 0.6421
MCF7 CARM1 KO cells; [12]
  KO/WT: 1.1394

## GASQAGMTGYGMPrQIL
MCF7 cells; [14]
  Fold change KO/WT: -2.889
MCF7 CARM1 KO cells; [15]
  CARM1 140-608/WT: -2.236
  KO/WT: -2.889
